From patent publication US20260217765A1, “NOVEL ANTIMICROBIAL PEPTIDE DESIGNED FROM DUCK-DERIVED ANTIMICROBIAL PEPTIDE ANDUSE THEREOF” (INDUSTRY-ACADEMIC COOPERATION FOUNDATION, CHOSUN UNIVERSITY, priority 2023, published 2026)
Peptide text beside a SMILES is read from it.

Legend:
[1] = tested on: Acinetobacter baumannii KCTC 2508; type: cell-based; conditions: KCTC 2508, 24 h
Protocol: Specifically, among the bacterial strains listed in Table 2, those known to form biofilms well (Acinetobacter baumannii KCTC 2508, Acinetobacter baumannii isolate 10, and isolate 14) were cultured in the appropriate media to the mid-log phase and diluted to a cell concentration of 5×10^4 cells/100 µL, followed by inoculation into microplates (SPL). Subsequently, the peptides prepared in <Example 1> were serially 10-fold diluted with 10 mM sodium phosphate buffer (pH 7.2), and 10 μL of each dilution was added to each well. The plates were then incubated at 37° C. for 24 hours. After completely removing the supernatant, the plates were fixed with 100% methanol for 15 minutes, stained with crystal violet staining solution for 1 hour, washed three times, and then the stain was solubilized with 95% ethanol. Absorbance was measured at 595 nm using a microplate reader to determine the MBIC values for each bacterial strain.

[2] = tested on: Acinetobacter baumannii_isolate20 (antibiotic-resistant); type: cell-based, Acinetobacter baumannii; conditions: isolate20 (antibiotic-resistant)
Text: (§1) To compare the antimicrobial activity of the peptides prepared in <Example 1>, the minimum inhibitory concentration (MIC), […] measured. Here, the minimal inhibitory concentration (MIC) refers to the lowest concentration of a substance that prevents visible bacterial growth.
(§2) Specifically, the bacterial strains listed in Table 2 below were obtained and cultured in media suitable for each strain until the mid-log phase. The cultures were then diluted to a concentration of 2×10^4 cells/100 μL and prepared in microtiter plates (Nunc, USA). Subsequently, serial 2-fold dilutions of the peptides prepared in Example 1 were prepared, and 10 μL of each dilution was added to the wells, and the plates were incubated at 37° C. for 18 hours. Absorbance at 600 nm was measured using a microtiter plate reader (Merck ELISA reader, Germany) to determine the MIC values for each bacterial strain. The parent peptide dCATH was used as a control.

[3] = tested on: Acinetobacter baumannii_isolate15 (antibiotic-resistant); type: cell-based, Acinetobacter baumannii; conditions: isolate15 (antibiotic-resistant)
Text: as §1, §2

[4] = tested on: Acinetobacter baumannii_isolate 4 (antibiotic-resistant); type: cell-based, Acinetobacter baumannii; conditions: isolate 4 (antibiotic-resistant)
Text: as §1, §2

[5] = tested on: Acinetobacter baumannii_isolate 24 (antibiotic-resistant); type: cell-based, Acinetobacter baumannii; conditions: isolate 24 (antibiotic-resistant)
Text: as §1, §2

[6] = tested on: Acinetobacter baumannii_isolate 3 (antibiotic-resistant); type: cell-based, Acinetobacter baumannii; conditions: isolate 3 (antibiotic-resistant)
Text: as §1, §2

[7] = tested on: Acinetobacter baumannii_isolate 10 (antibiotic-resistant); type: cell-based, Acinetobacter baumannii; conditions: isolate 10 (antibiotic-resistant)
Text: as §1, §2

[8] = tested on: Acinetobacter baumannii_isolate 19 (antibiotic-resistant); type: cell-based, Acinetobacter baumannii; conditions: isolate 19 (antibiotic-resistant)
Text: as §1, §2

[9] = tested on: Acinetobacter baumannii_isolate 9 (antibiotic-resistant); type: cell-based, Acinetobacter baumannii; conditions: isolate 9 (antibiotic-resistant)
Text: as §1, §2

[10] = tested on: Acinetobacter baumannii_isolate 23 (antibiotic-resistant); type: cell-based, Acinetobacter baumannii; conditions: isolate 23 (antibiotic-resistant)
Text: as §1, §2

[11] = tested on: Acinetobacter baumannii_isolate 8 (antibiotic-resistant); type: cell-based, Acinetobacter baumannii; conditions: isolate 8 (antibiotic-resistant)
Text: as §1, §2

[12] = tested on: Acinetobacter baumannii_isolate 13 (antibiotic-resistant); type: cell-based, Acinetobacter baumannii; conditions: isolate 13 (antibiotic-resistant)
Text: as §1, §2

[13] = tested on: Acinetobacter baumannii_isolate 5 (antibiotic-resistant); type: cell-based, Acinetobacter baumannii; conditions: isolate 5 (antibiotic-resistant)
Text: as §1, §2

[14] = tested on: Acinetobacter baumannii_isolate16 (antibiotic-resistant); type: cell-based, Acinetobacter baumannii; conditions: isolate16 (antibiotic-resistant)
Text: as §1, §2

[15] = tested on: Acinetobacter baumannii_isolate 26 (antibiotic-resistant); type: cell-based, Acinetobacter baumannii; conditions: isolate 26 (antibiotic-resistant)
Text: as §1, §2

[16] = tested on: Acinetobacter baumannii_isolate11 (antibiotic-resistant); type: cell-based, Acinetobacter baumannii; conditions: isolate11 (antibiotic-resistant)
Text: as §1, §2

[17] = tested on: Acinetobacter baumannii_isolate 14 (antibiotic-resistant); type: cell-based, Acinetobacter baumannii; conditions: isolate 14 (antibiotic-resistant)
Text: as §1, §2

[18] = tested on: Acinetobacter baumannii_isolate21 (antibiotic-resistant); type: cell-based, Acinetobacter baumannii; conditions: isolate21 (antibiotic-resistant)
Text: as §1, §2

[19] = tested on: Acinetobacter baumannii_isolate 25 (antibiotic-resistant); type: cell-based, Acinetobacter baumannii; conditions: isolate 25 (antibiotic-resistant)
Text: as §1, §2

[20] = tested on: Acinetobacter baumannii_isolate 12 (antibiotic-resistant); type: cell-based, Acinetobacter baumannii; conditions: isolate 12 (antibiotic-resistant)
Text: as §1, §2

[21] = tested on: Acinetobacter baumannii_isolate 17 (antibiotic-resistant); type: cell-based, Acinetobacter baumannii; conditions: isolate 17 (antibiotic-resistant)
Text: as §1, §2

[22] = tested on: Acinetobacter baumannii_isolate 18 (antibiotic-resistant); type: cell-based, Acinetobacter baumannii; conditions: isolate 18 (antibiotic-resistant)
Text: as §1, §2

[23] = tested on: Acinetobacter baumannii_isolate 7 (antibiotic-resistant); type: cell-based, Acinetobacter baumannii; conditions: isolate 7 (antibiotic-resistant)
Text: as §1, §2

[24] = tested on: Acinetobacter baumannii_isolate 6 (antibiotic-resistant); type: cell-based, Acinetobacter baumannii; conditions: isolate 6 (antibiotic-resistant)
Text: as §1, §2

[25] = tested on: Acinetobacter baumannii_isolate 2 (antibiotic-resistant); type: cell-based, Acinetobacter baumannii; conditions: isolate 2 (antibiotic-resistant)
Text: as §1, §2

[26] = tested on: Acinetobacter baumannii_isolate 22 (antibiotic-resistant); type: cell-based, Acinetobacter baumannii; conditions: isolate 22 (antibiotic-resistant)
Text: as §1, §2

[27] = tested on: Acinetobacter baumannii_isolate 1 (antibiotic-resistant); type: cell-based, Acinetobacter baumannii; conditions: isolate 1 (antibiotic-resistant)
Text: as §1, §2

CC[C@H](C)[C@H](NC(=O)[C@H](C)NC(=O)[C@H](CC(C)C)NC(=O)[C@@H]1CCCN1C(=O)[C@@H](NC(=O)[C@H](CC(C)C)NC(=O)[C@H](CCC(N)=O)NC(=O)[C@H](Cc1c[nH]c2ccccc12)NC(=O)[C@H](Cc1ccccc1)NC(=O)[C@H](CCCNC(=N)N)NC(=O)[C@@H](N)CCCCN)C(C)C)C(=O)N[C@@H](CCCCN)C(=O)N[C@H](C(=O)N[C@@H](Cc1ccc(O)cc1)C(=O)N[C@@H](CCCNC(=N)N)C(=O)N[C@@H](C)C(=O)N[C@@H](Cc1c[nH]c2ccccc12)C(=O)N[C@@H](CCCCN)C(=O)N[C@@H](CCCNC(=N)N)C(=O)N[C@@H](CCCNC(=N)N)C(N)=O)[C@@H](C)CC [dCATH, reference compound] (H-KRFWQLVPLAIKIYRAWKRR-NH2; N-terminus assumed)
2 µM: MIC [2] | MIC [3] | MIC [4] | MIC [6] | MIC [7] | MIC [8] | MIC [9] | MIC [10] | MIC [11] | MIC [12] | MIC [13] | MIC [14] | MIC [15] | MIC [16] | MIC [17] | MIC [18] | MIC [19] | MIC [20] | MIC [21] | MIC [22] | MIC [25] | MIC [26] | MIC [27]
4 µM: MBIC [1] | MIC [5] | MIC [23] | MIC [24]

CC[C@H](C)[C@H](NC(=O)[C@H](C)NC(=O)[C@H](CC(C)C)NC(=O)[C@@H]1CCCN1C(=O)[C@@H](NC(=O)[C@H](CC(C)C)NC(=O)[C@H](CCC(N)=O)NC(=O)[C@H](Cc1c[nH]c2ccccc12)NC(=O)[C@H](C)NC(=O)[C@H](CCCNC(=N)N)NC(=O)[C@@H](N)CCCCN)C(C)C)C(=O)N[C@@H](CCCCN)C(=O)N[C@H](C(=O)N[C@@H](Cc1ccc(O)cc1)C(=O)N[C@@H](CCCNC(=N)N)C(=O)N[C@@H](C)C(=O)N[C@@H](Cc1c[nH]c2ccccc12)C(=O)N[C@@H](CCCCN)C(=O)N[C@@H](CCCNC(=N)N)C(=O)N[C@@H](CCCNC(=N)N)C(N)=O)[C@@H](C)CC [dCATH-A1] (H-KRAWQLVPLAIKIYRAWKRR-NH2; N-terminus assumed)
1 µM: MIC [2] | MIC [8] | MIC [10] | MIC [21]
2 µM: MIC [3] | MIC [4] | MIC [5] | MIC [6] | MIC [7] | MIC [9] | MIC [11] | MIC [12] | MIC [13] | MIC [14] | MIC [15] | MIC [16] | MIC [17] | MIC [18] | MIC [19] | MIC [20] | MIC [22] | MIC [23] | MIC [24] | MIC [25] | MIC [26] | MIC [27]
4 µM: MBIC [1]

CC[C@H](C)[C@H](NC(=O)[C@H](C)NC(=O)[C@H](CC(C)C)NC(=O)[C@@H]1CCCN1C(=O)[C@@H](NC(=O)[C@H](CC(C)C)NC(=O)[C@H](CCC(N)=O)NC(=O)[C@H](C)NC(=O)[C@H](Cc1ccccc1)NC(=O)[C@H](CCCNC(=N)N)NC(=O)[C@@H](N)CCCCN)C(C)C)C(=O)N[C@@H](CCCCN)C(=O)N[C@H](C(=O)N[C@@H](Cc1ccc(O)cc1)C(=O)N[C@@H](CCCNC(=N)N)C(=O)N[C@@H](C)C(=O)N[C@@H](Cc1c[nH]c2ccccc12)C(=O)N[C@@H](CCCCN)C(=O)N[C@@H](CCCNC(=N)N)C(=O)N[C@@H](CCCNC(=N)N)C(N)=O)[C@@H](C)CC [dCATH-A2] (H-KRFAQLVPLAIKIYRAWKRR-NH2; N-terminus assumed)
4 µM: MBIC [1]
2 µM: MIC [4] | MIC [7] | MIC [9] | MIC [15] | MIC [24] | MIC [27]
1 µM: MIC [2] | MIC [3] | MIC [5] | MIC [6] | MIC [8] | MIC [10] | MIC [11] | MIC [12] | MIC [13] | MIC [14] | MIC [16] | MIC [17] | MIC [18] | MIC [19] | MIC [20] | MIC [21] | MIC [22] | MIC [23] | MIC [25] | MIC [26]
